Article PMC5327470, “Discovery and Optimization of Novel 5-Indolyl-7-arylimidazo[1,2-a]pyridine-8-carbonitrile Derivatives as Potent Antitubulin Agents Targeting Colchicine-binding Site” (Scientific Reports, 2017)
Entries after “also recorded” stand apart in the source; their conditions may differ.

Assays:
[1] = system: SMMC-7721 (human liver cancer); assay: MTT antiproliferative assay, SMMC-7721; format: cell-based; details: 72 h, mean ± SD
Protocol: Data represent the mean values ± standard deviation (SD) of independent experiments performed in triplicate.
All of the cells were purchased from the American Type Culture Collection (ATCC, Manassas, VA).
The antiproliferative activities in vitro of Crolibulin and all the target compounds were determined by an MTT assay. Briefly, cells were seeded into 96-well plates at a density of 1–3 × 10^4/well (depends on the cell growth rate). 24 h later, triplicate wells were treated with media and the agents. […] After 4 h of incubation, the medium with MTT was removed, and […] of DMSO was added to each well. The plates were gently agitated until the purple formazan crystals were dissolved, and the OD490 was determinedusing a microplate reader (MK3, Thermo, Germany). The data were calculated and plotted as the percent viability compared to the control.

[2] = system: H460 (human lung cancer); assay: MTT antiproliferative assay, H460; format: cell-based; details: Homo sapiens, MTT, 72 h, mean ± SD
Protocol: (§1) To evaluate the antiproliferative activity, all synthesized derivatives (5a–5v and 7a–7h) were investigated for their activity in vitro against a panel of cancer cell lines including HT-29 (human colon cancer), H460 (human lung cancer), A549 (human lung carcinoma), MKN-45 (human gastric cancer) and SMMC-7721 (human liver cancer) by MTT assay. CA-4 and Crolibulin were served as positive control, and the results expressed as half-maximal inhibitory concentration (IC50). IC50 values are the concentrations that cause 50% inhibition of cancer cell growth (μM). Data represent the mean values ± standard deviation (SD) of independent experiments performed in triplicate.
(§2) The antiproliferative activities in vitro of Crolibulin and all the target compounds were determined by an MTT assay. Briefly, cells were seeded into 96-well plates at a density of 1–3 × 10^4/well (depends on the cell growth rate). 24 h later, triplicate wells were treated with media and the agents. After 72 h ofincubation at 37 °C in 5% CO2, the drug containing medium wasremoved and replaced by […] of fresh medium with 5 mg/mLMTT solution. After 4 h of incubation, the medium with MTT was removed, and […] of DMSO was added to each well. The plates were gently agitated until the purple formazan crystals were dissolved, and the OD490 was determinedusing a microplate reader (MK3, Thermo, Germany). The data were calculated and plotted as the percent viability compared to the control. The 50% inhibitory concentration (IC50) was defined as theconcentration that reduced the absorbance of the untreated wells by 50% of the vehicle in the MTT assay.

[3] = system: HT-29 (human colon cancer); assay: MTT antiproliferative assay, HT-29; format: cell-based; details: for IC50: Homo sapiens, HT-29, MTT, 72 h, mean ± SD, read-out: IC50 (μM) ±SD HT29
Protocol: as §1
(§3) Cell lines and culture conditions.The human colon carcinoma cell line HT-29, the human pulmonary carcinoma cell line A549, the human gastric carcinoma cell line MKN-45, the human breast cancer cell line MDA-MB-231 and human heptocarcinoma cellline SMMC-7721were cultured in RPMI-1640 mediumcontaining 10% FBS, 100 U/mL streptomycin and 100 U/mL penicillinat 37 °C in humidified atmosphere with 5% CO2. All of the cells were purchased from the American Type Culture Collection (ATCC, Manassas, VA).
as §2

[4] = system: MKN-45 (human gastric cancer); assay: MTT antiproliferative assay, MKN-45; format: cell-based; details: 72 h, mean ± SD, read-out: IC50 (μM) ±SD MKN45
Protocol: as §1, §3, §2

[5] = system: microtubules in HT-29 cells; assay: Immunofluorescence staining of microtubule network; format: cell-based, human; details: 12 h, anti-α-tubulin immunostaining
Protocol: After incubation, cells were fixed, reacted with monoclonal anti-tubulin antibody at 4 °C overnight and then reacted with fluorescein isothiocyanate (FITC) conjugated secondary antibody, DAPI was used for nuclear counter-staining, the cellular microtubules were observed under fluorescence microscope (scale bar = 20 μm).
The HT-29 cells were seeded at 1 × 10^4 per well on a 24 wellplate and grown for 24 h. […] Cells in the control group were treated with culture medium. The control and treated cells were fixed with 4% formaldehydein PBS for 30 min at −20 °C, then washed twice with PBS and permeabilized with 0.1% (v/v) Triton X-100 in PBS for 5 min. Then, the cells were blocked with 3% bovine serum albumin(BSA) in PBS for 30 min. The primary α-tubulin antibody wasdiluted (1:100) with 2% BSA in PBS and incubated overnight at 4 °C. The cells were washed with PBS to remove unbound primaryantibody and then cells were incubated with FITC-conjugated antimousesecondary antibody, diluted (1:100) with 2% BSA in PBS, for 2 h at 37 °C. The cells were washed with PBS to remove unbound secondary antibody, nucleus was stained with 4,6-diamino-2-phenolindoldihydrochloride (DAPI) and then, immunofluorescencewas detected using a fluorescence microscope (Olympus,Tokyo, Japan).

[6] = system: A549 (human lung carcinoma); assay: MTT antiproliferative assay, A549; format: cell-based; details: 72 h, mean ± SD
Protocol: as §1, §3, §2

[7] = system: tubulin, colchicine site; assay: Colchicine competition (competitive tubulin-binding) assay; details: 0, 1.6, 5 and 15 μM, 1 h at 37 °C, then 5 μM colchicine
Protocol: Figure 6 Colchicine competition assay. […] The fluorescence was measured by Hitachi F-2500 spectrofluorometer.
Then colchicine was added to a final concentration of 5 μM[43]. Fluorescence was determined using a Hitachi F-2500 spectrofluorometer (Tokyo, Japan) at excitation wavelengths of 365 nm and emission wavelengths of 435 nm. Blank values (buffer alone) as background were subtracted from all samples. […] Taxol, not binding in the colchicine-site of tubulin, was added as a negative control.

[8] = system: HT-29, H460, A549, MKN-45 and SMMC-7721 cell lines; assay: MTT antiproliferative assay, panel of five cancer cell lines; format: cell-based, human; details: ratio of IC50 values
Protocol: IC50 values are the concentrations that cause 50% inhibition of cancer cell growth (μM). Data represent the mean values ± standard deviation (SD) of independent experiments performed in triplicate.
as §2

[9] = system: human fetal hepatocyte line L02; assay: MTT assay on normal cell line L02; format: cell-based; details: non-cancer cell line
Protocol: The drug candidate potency depends not only on its cytotoxicity in malignant cells, but also on its relative lack of toxicity toward normal cells.
as §2

[10] = system: HT-29 cells; assay: Cell cycle phase distribution by flow cytometry; format: cell-based, human; details: 24 h
Protocol: The structural similarities between the target compounds (5a–5v and 7a–7h) with CA-4 and Crolibulin, as well as the promising cytotoxic activity led us to hypothesize that these compounds exert their antiproliferative properties through inhibition of tubulin dynamics, thus inducing mitotic arrest in cancer cells. […] Controls were treated with drug vehicle DMSO. […] And this effect is characteristic of antimitotic agents disrupting microtubule assembly.
Data are expressed as the mean ± SEM.
For flow cytometric analysis of DNA content, cells inexponential growth were treated with compound for 24 h[41]. The cells treated with compoundwere collected, washed twice with PBS, and then fixed with 75% alcohol overnight. Then, the cells were washed with PBS and resuspended in 100 μL of PBS, 200 mg/mL RNase wasadded for 30 min to eliminate the interference of RNA, and 20 mL/L propidium iodide (PI; Sigma) was added for 30 min.Then, the cells were washed, and the DNA content wasdetected by flow cytometer (BD Accuri C6).

Row | Structure (SMILES) | IC50 [1] [µM] | IC50 ([2]; NCI-H460) [µM] | IC50 [3] [µM] | IC50 [4] [µM] | effect on microtubule network ([5]; HT-29, 20 nM) | IC50 [6] [µM] | effect on intrinsic fluorescence of colchicine-tubulin complex [7] | fold increased potency over 5a (H), 5c (3-OMe) and 5d (4-OMe) [8] | IC50 ([2]; NCI-H460, 72 h) [µM] | melting point [°C] | effect on normal cell L02 [9] | percent of cells in G1 phase ([10]; HT-29, 20 nM) [%] | percent of cells in G1 phase ([10]; HT-29, 200 nM) [%] | percent of cells in G2 (G2/M) phase ([10]; HT-29, 200 nM) [%] | percent of cells in G1 phase ([10]; HT-29, 1000 nM) [%] | percent of cells in G2 (G2/M) phase ([10]; HT-29, 1000 nM) [%] | effect on microtubule network ([5]; HT-29, 32.5 nM) | fold more active than CA-4 on HT-29 ([3]; ratio of IC50 values) [fold] | fold more active than Crolibulin on HT-29 cell ([3]; ratio of IC50 values)
1 | COc1ccc(/C=C\c2cc(OC)c(OC)c(OC)c2)cc1O [CA-4, Combretastatin A-4, reference compound] | 1.92 ± 0.11 | 0.08 ± 0.01 | 0.05 ± 0.01 | 0.11 ± 0.02 | cellular microtubule depolymerization | 0.43 ± 0.053 |  |  |  |  |  |  |  |  |  |  |  |  | 
2 | CC(=O)O[C@H]1C(=O)[C@@]2(C)[C@H]([C@H](OC(=O)c3ccccc3)[C@]3(O)C[C@H](OC(=O)[C@H](O)[C@@H](NC(=O)c4ccccc4)c4ccccc4)C(C)=C1C3(C)C)[C@]1(OC(C)=O)CO[C@@H]1C[C@@H]2O [Taxol, reference compound] |  |  |  |  |  |  | scarcely effect |  |  |  |  |  |  |  |  |  |  |  | 
3 | N#Cc1c(-c2ccccc2F)cc(-c2c[nH]c3ccccc23)n2ccnc12 [5e, 7-(2-fluorophenyl)-5-(1H-indol-3-yl)imidazo[1,2-a]pyridine-8-carbonitrile] | 26.2 ± 2.82 |  | 0.09 ± 0.01 | 0.96 ± 0.06 |  | 5.67 ± 0.23 |  | at least 1.7 fold | 1.16 ± 0.12 | 304.6 to 308.8 |  |  |  |  |  |  |  |  | 
4 | Cc1ccccc1-c1cc(-c2c[nH]c3ccccc23)n2ccnc2c1C#N [5b, 5-(1H-indol-3-yl)-7-(o-tolyl)imidazo[1,2-a]pyridine-8-carbonitrile] | 0.82 ± 0.06 |  | 0.16 ± 0.04 | 1.52 ± 0.15 |  | 0.23 ± 0.04 |  |  | 46.3 ± 5.26 | 334.3 to 335.1 | negligible effects |  |  |  |  |  |  |  | 
5 | N#Cc1c(-c2ccc(F)cc2Cl)cc(-c2c[nH]c3ccccc23)n2ccnc12 [5k, 7-(2-chloro-4-fluorophenyl)-5-(1H-indol-3-yl)imidazo[1,2-a]pyridine-8-carbonitrile] |  |  | 0.02 ± 0.001 | 0.14 ± 0.03 |  | 0.57 ± 0.08 | decreased the intrinsic colchicine fluorescence in a dose-dependent manner |  | 0.05 ± 0.008 | 307.9 to 317.3 | negligible effects; also recorded: minimal | 62.84 | 65.76 | 14.21 | 24.62 | 64.07 | cellular microtubule depolymerization |  | 
6 | N#Cc1c(-c2ccc(O)c(Br)c2)cc(-c2c[nH]c3ccccc23)n2ccnc12 [5l, 7-(3-bromo-4-hydroxyphenyl)-5-(1H-indol-3-yl)imidazo[1,2-a]pyridine-8-carbonitrile] | 80.2 ± 7.54 |  | 0.92 ± 0.08 | 10.7 ± 1.85 |  | > 100 |  |  | 1.07 ± 0.12 | 309.2 to 312.3 |  |  |  |  |  |  |  |  | 
7 | CCNCc1cn2c(-c3c[nH]c4ccccc34)cc(-c3ccc(F)cc3Cl)c(C#N)c2n1 [7b, 7-(2-chloro-4-fluorophenyl)-2-((ethylamino)methyl)-5-(1H-indol-3-yl)imidazo[1,2-a]pyridine-8-carbonitrile] | 21.6 ± 3.16 |  | 0.03 ± 0.003 | 20.5 ± 2.32 |  | 3.54 ± 0.41 |  |  | 0.96 ± 0.06 | 170.7 to 172.6 |  |  |  |  |  |  |  | ~1.7 | about 17 fold
8 | N#Cc1c(-c2ccccc2Cl)cc(-c2c[nH]c3ccccc23)n2ccnc12 [5f, 7-(2-chlorophenyl)-5-(1H-indol-3-yl)imidazo[1,2-a]pyridine-8-carbonitrile] | 13.8 ± 2.23 |  | 0.07 ± 0.004 | 0.38 ± 0.06 |  | 0.95 ± 0.07 |  | at least 1.7 fold | 0.18 ± 0.08 | 296.7 to 300.1 | negligible effects |  |  |  |  |  |  |  | 
9 | N#Cc1c(-c2ccc(Br)cc2)cc(-c2c[nH]c3ccc(Br)cc23)n2ccnc12 [5u, 5-(5-bromo-1H-indol-3-yl)-7-(4-bromophenyl)imidazo[1,2-a]pyridine-8-carbonitrile] | 79.3 ± 5.14 |  | 0.73 ± 0.09 | 38.1 ± 4.42 |  | 21.4 ± 2.58 |  |  | 1.93 ± 0.33 | 317.2 to 321.8 |  |  |  |  |  |  |  |  | 
10 | CC(C)NCc1cn2c(-c3c[nH]c4ccccc34)cc(-c3ccc(F)cc3Cl)c(C#N)c2n1 [7c, 7-(2-chloro-4-fluorophenyl)-5-(1H-indol-3-yl)-2-((isopropylamino)methyl)imidazo[1,2-a]pyridine-8-carbonitrile] | 36.7 ± 4.92 |  | 0.33 ± 0.04 | 22.4 ± 2.51 |  | 6.18 ± 0.71 |  |  | 0.96 ± 0.07 | 222.2 to 225.3 |  |  |  |  |  |  |  |  | 
11 | COc1cccc(-c2cc(-c3c[nH]c4ccccc34)n3ccnc3c2C#N)c1 [5c, 5-(1H-indol-3-yl)-7-(3-methoxyphenyl)imidazo[1,2-a]pyridine-8-carbonitrile] | 76.2 ± 8.98 |  | 0.24 ± 0.01 | 1.24 ± 0.08 |  | 12.2 ± 1.89 |  |  | 17.5 ± 1.53 | 316.5 to 318.7 |  |  |  |  |  |  |  |  | 
12 | CN(C)Cc1cn2c(-c3c[nH]c4ccccc34)cc(-c3ccc(F)cc3Cl)c(C#N)c2n1 [7d, 7-(2-chloro-4-fluorophenyl)-2-((dimethylamino)methyl)-5-(1H-indol-3-yl)imidazo[1,2-a]pyridine-8-carbonitrile] | 22.1 ± 3.41 |  | 0.19 ± 0.02 | 16.6 ± 1.13 |  | 7.53 ± 0.63 |  |  | 0.71 ± 0.05 | 175.4 to 178.4 |  |  |  |  |  |  |  |  | 
